Data reported in article PMC11790914, “Chemogenomics for steroid hormone receptors (NR3)” (Communications Chemistry, 2025).
“Also recorded” adds a separate entry of the source.

Experiments:
NR1I3 (CAR) = biological target: T1, NR1I3 (CAR) (Homo sapiens, UniProt Q14994); assay: Gal4 hybrid reporter gene assay CAR; format: cell-based; conditions: n=3
T1 construct: expressed in transfected cells; host or cells: HEK293T
T1 sequence (Q14994 109-352 limits assumed): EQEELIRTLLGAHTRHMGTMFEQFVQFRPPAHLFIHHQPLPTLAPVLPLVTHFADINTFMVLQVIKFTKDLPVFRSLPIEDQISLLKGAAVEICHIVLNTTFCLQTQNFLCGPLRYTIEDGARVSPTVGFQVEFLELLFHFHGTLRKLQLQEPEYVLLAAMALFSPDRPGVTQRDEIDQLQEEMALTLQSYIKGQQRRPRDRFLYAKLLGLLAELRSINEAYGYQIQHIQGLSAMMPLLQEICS
Description: (§1) Reference ligands are listed in the methods section.
(§2) HEK293T cells (ATCC, Manassas, Virgina, USA; #CRL-3216) were cultured to a maximal confluence of 70–80% in DMEM, high glucose, supplemented with 10% FCS, sodium pyruvate (1 mM), penicillin (100 U/mL), and streptomycin (100 μg/mL) at 37 °C and 5% CO2 (v/v), and seeded in clear 96-well plates (4 × 10^4 cells per well). After 20–24 h, medium was changed to Opti-MEM without supplements and the cells were transiently transfected using Lipofectamine™ LTX/Plus™ Reagents (Invitrogen, Carlsbad, California, USA; #15338100) according to the manufacturer’s protocol with pFR-Luc (reporter gene; Stratagene, Agilent Technologies, Santa Clara, California, USA; #219050), pRL-SV40 (control gene for normalization of transfection efficiency and cell growth; Promega, Fitchburg, Wisconsin, USA; #E2231) and one pFA-CMV-hNR-LBD clone coding for the hinge region and ligand binding domain (LBD) of the human NR of interest. Five hours after transfection, the cells were incubated with the NR3 CG compound candidates at the recommended concentrations by changing the medium to Opti-MEM supplemented with penicillin (100 µ/mL) and streptomycin (100 µg/mL) additionally containing 0.1% DMSO and the respective test compound or 0.1% DMSO alone as untreated control. Firefly (reporter) and renilla (control) luminescence were measured after 14–16 h incubation using the Dual-Glo® Luciferase Assay System (Promega, Fitchburg, Wisconsin, USA; #E2980) according to manufacturer’s protocol on a Tecan Spark® 10M multimode microplate reader (Tecan Group AG, Männedorf, Switzerland). To obtain relative light units (RLU) firefly luminescence was divided by renilla luminescence and multiplied by 1000. Fold activation was obtained by dividing the mean RLU of a test sample by the mean RLU of the DMSO (0.1%) control. Experiments were performed in singlets in at least three biologically independent repeats. […]

NR3A2 (ERβ) = conditions: (lit.); ref Supplementary Table 1; read-out: Potency [nM] IC50, NR3A2 (ERβ); cited from earlier work
NR3B2 (ERRβ) = conditions: ref Supplementary Table 1, cited from earlier work
[1] = cited from earlier work; for Other off-target at recom. conc.: known off-target outside the NR family at the recommended concentration; for Other off-target at recom. conc. / NR off-target at recom. conc.: ref Supplementary Table 1 (superscript references); for NR off-target at recom. conc.: known NR off-target at the recommended concentration; for Reason for exclusion: number of annotated off-targets: other targets with annotated bioactivities at ≤10 µM in previously published dataset
NR1B1 (RARα) = biological target: T2, NR1B1 (RARα) (Homo sapiens, UniProt P10276); assay: Gal4 hybrid reporter gene assay RARα; format: cell-based; parameters: Activity on NR targets outside NR3 family [mean log10(fold reporter gene activity)] NR1B1 (RARα): concentration or dose not given beside the values
T2 construct: expressed in transfected cells; host or cells: HEK293T
Description: as §1
Five hours after transfection, the cells were incubated with the NR3 CG compound candidates at the recommended concentrations by changing the medium to Opti-MEM supplemented with penicillin (100 µ/mL) and streptomycin (100 µg/mL) additionally containing 0.1% DMSO and the respective test compound or 0.1% DMSO alone as untreated control. Firefly (reporter) and renilla (control) luminescence were measured after 14–16 h incubation using the Dual-Glo® Luciferase Assay System (Promega, Fitchburg, Wisconsin, USA; #E2980) according to manufacturer’s protocol on a Tecan Spark® 10M multimode microplate reader (Tecan Group AG, Männedorf, Switzerland). To obtain relative light units (RLU) firefly luminescence was divided by renilla luminescence and multiplied by 1000. Fold activation was obtained by dividing the mean RLU of a test sample by the mean RLU of the DMSO (0.1%) control. Experiments were performed in singlets in at least three biologically independent repeats.
Supplementary Figure 1. […] Compounds are labeled according
Supplementary Figure 2. […] Compounds are
representing the NR1, NR2, NR4 and NR5 families.
scanning fluorimetry (DSF).
a concentration of 20 µM.

NR1H3 (LXRα) = biological target: T3, NR1H3 (LXRα) (Homo sapiens, UniProt Q13133); assay: Gal4 hybrid reporter gene assay LXRα; format: cell-based; conditions: n=3
T3 construct: expressed in transfected cells; host or cells: HEK293T
T3 sequence (Q13133 209-447 limits assumed): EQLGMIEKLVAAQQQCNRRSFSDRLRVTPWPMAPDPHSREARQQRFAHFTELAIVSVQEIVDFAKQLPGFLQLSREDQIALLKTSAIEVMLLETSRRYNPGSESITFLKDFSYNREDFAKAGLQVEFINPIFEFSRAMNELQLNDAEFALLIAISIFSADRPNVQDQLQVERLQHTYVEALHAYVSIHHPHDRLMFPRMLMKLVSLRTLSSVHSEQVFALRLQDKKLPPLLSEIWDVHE
Description: as §1, §2

NR2A2 (HNF4α) = biological target: T4, NR2A2 (HNF4α) (Homo sapiens, UniProt P41235); assay: Gal4 hybrid reporter gene assay HNF4α; format: cell-based; conditions: n=3
T4 construct: expressed in transfected cells; host or cells: HEK293T
Description: as §1
as §2, with “Five hours after transfection, the cells were incubated with the NR3 CG compound candidates at the recommended concentrations by changing the medium to Opti-MEM supplemented with penicillin (100 µ/mL) and streptomycin (100 µg/mL) additionally containing 0.1% DMSO and the respective test compound or 0.1% DMSO alone as untreated control.” left out, “1000.” for “1000. Fold activation was obtained by dividing the mean RLU of a test sample by the mean RLU of the DMSO (0.1%) control. Experiments were performed in singlets in at least three biologically independent repeats.”

T2 sequence (P10276 183-417 limits assumed): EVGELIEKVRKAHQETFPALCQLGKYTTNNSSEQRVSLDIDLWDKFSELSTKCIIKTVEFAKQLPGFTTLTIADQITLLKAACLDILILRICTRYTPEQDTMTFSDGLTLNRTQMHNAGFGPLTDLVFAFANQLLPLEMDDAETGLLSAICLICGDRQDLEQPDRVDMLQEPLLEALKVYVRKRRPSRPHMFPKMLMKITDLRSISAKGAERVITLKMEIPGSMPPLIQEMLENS
T4 sequence (P41235 147-377 limits assumed): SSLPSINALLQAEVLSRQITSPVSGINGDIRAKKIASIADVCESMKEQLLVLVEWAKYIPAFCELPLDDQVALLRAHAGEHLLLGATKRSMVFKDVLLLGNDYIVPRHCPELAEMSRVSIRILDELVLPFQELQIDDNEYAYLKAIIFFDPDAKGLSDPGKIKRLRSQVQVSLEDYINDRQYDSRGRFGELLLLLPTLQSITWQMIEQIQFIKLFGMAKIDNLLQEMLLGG

SMILES: CC/C(=C(\c1ccc(O)cc1)c1ccc(OCCN(C)C)cc1)c1ccccc1 [(Z)-4-Hydroxytamoxifen]
- Activity on NR targets outside NR3 family [mean log10(fold reporter gene activity)] NR1I3 (CAR) (NR1I3 (CAR); 3 µM, vs. DMSO ctrl): 1.13 log10(fold reporter gene activity)
- IC50 (NR3A2 (ERβ)): 1 ± 1 nM
- IC50 (NR3B2 (ERRβ); (lit.), read-out: Potency [nM] IC50, NR3B2 (ERRβ)): 650 nM
- Other off-target at recom. conc. [1]: PLD1 and PLD2

SMILES: CC/C(=C(/c1ccc(/C=C/C(=O)O)cc1)c1ccc2[nH]ncc2c1)c1ccc(F)cc1Cl [ARN810]
- Activity on NR1B1 (RARα) (NR1B1 (RARα); 1 µM, n=3): -0.97 mean log10(fold reporter gene activity)
- IC50 (NR3A2 (ERβ)): 9 nM
- NR off-target at recom. conc. [1]: NR3C1; also recorded: NR3C2; also recorded: NR3C3; also recorded: NR3C4
- Other off-target at recom. conc. [1]: GABAA and DAT
- Reason for exclusion: number of annotated off-targets [1]: > 5 off-targets

SMILES: C[C@@H]1Cc2c([nH]c3ccccc23)[C@@H](c2c(F)cc(/C=C/C(=O)O)cc2F)N1CC(C)(C)F [AZD9496]
- Activity on NR targets outside NR3 family [mean log10(fold reporter gene activity)] NR1B1 (RARα) (NR1B1 (RARα)): -0.43 log10(fold reporter gene activity)

SMILES: COc1ccc(-c2coc3cc(O)cc(O)c3c2=O)cc1 [Biochanin A]
- Activity on NR1H3 (LXRα) (NR1H3 (LXRα); 10 µM): -0.46 mean log10(fold reporter gene activity)
- Activity on NR1I3 (CAR) (NR1I3 (CAR); 10 µM): -0.24 mean log10(fold reporter gene activity)
- Activity on NR2A2 (HNF4α) (NR2A2 (HNF4α); 10 µM): 0.38 mean log10(fold reporter gene activity)
- Reason for exclusion: number of annotated off-targets [1]: > 5 off-targets

SMILES: CCCC1O[C@@H]2C[C@H]3[C@@H]4CCC5=CC(=O)C=C[C@]5(C)[C@H]4[C@@H](O)C[C@]3(C)[C@]2(C(=O)CO)O1 (stereo partly shown) [Budesonide]
- Reason for exclusion: number of annotated off-targets [1]: > 5 off-targets

SMILES: CCN(CC)c1ccc(/C=N/NC(=O)c2ccc(O)cc2)cc1 [DY131]
- Activity on NR targets outside NR3 family [mean log10(fold reporter gene activity)] NR2A2 (HNF4α) (NR2A2 (HNF4α); 3 µM, vs. DMSO ctrl): 0.29 log10(fold reporter gene activity)
- rel. activity from literature, NR3B2 (ERRβ): fold activation (NR3B2 (ERRβ)): 2 fold

SMILES: Cc1ccc2c(NC[C@](O)(CC(C)(C)c3cc(F)cc4c3OCC4)C(F)(F)F)cccc2n1 [Mapracorat]
- Activity on NR targets outside NR3 family [mean log10(fold reporter gene activity)] NR1H3 (LXRα) (NR1H3 (LXRα); 1 µM, vs. DMSO ctrl): -0.38 log10(fold reporter gene activity)

SMILES: C/C=C1\C(=O)C[C@H]2[C@@H]3CCC4=CC(=O)CC[C@]4(C)[C@H]3CC[C@]12C [Z-Guggulsterone]
- Activity on NR1H3 (LXRα) (NR1H3 (LXRα); 3 µM): -0.71 mean log10(fold reporter gene activity)
- Activity on NR1I3 (CAR) (NR1I3 (CAR); 3 µM): -0.48 mean log10(fold reporter gene activity)
- NR off-target at recom. conc. [1]: NR1H4; also recorded: NR1I2; also recorded: NR3A1; also recorded: NR3C1; also recorded: NR3C2
- Reason for exclusion: number of annotated off-targets [1]: > 5 off-targets
